The values below are quoted from earlier work in US9241965B2, “Composition containing Prunus mume extract for external application to skin” (AMOREPACIFIC CORPORATION, priority 2010, dated 2016).

The data set deals with T1, TRPV1 (Homo sapiens, UniProt Q8NER1).
T1 construct: endogenous in cells; host or cells: HaCAT cells
The settings on record: skin temperature about 42° C.

T1 sequence (Q8NER1 whole entry, species assumed): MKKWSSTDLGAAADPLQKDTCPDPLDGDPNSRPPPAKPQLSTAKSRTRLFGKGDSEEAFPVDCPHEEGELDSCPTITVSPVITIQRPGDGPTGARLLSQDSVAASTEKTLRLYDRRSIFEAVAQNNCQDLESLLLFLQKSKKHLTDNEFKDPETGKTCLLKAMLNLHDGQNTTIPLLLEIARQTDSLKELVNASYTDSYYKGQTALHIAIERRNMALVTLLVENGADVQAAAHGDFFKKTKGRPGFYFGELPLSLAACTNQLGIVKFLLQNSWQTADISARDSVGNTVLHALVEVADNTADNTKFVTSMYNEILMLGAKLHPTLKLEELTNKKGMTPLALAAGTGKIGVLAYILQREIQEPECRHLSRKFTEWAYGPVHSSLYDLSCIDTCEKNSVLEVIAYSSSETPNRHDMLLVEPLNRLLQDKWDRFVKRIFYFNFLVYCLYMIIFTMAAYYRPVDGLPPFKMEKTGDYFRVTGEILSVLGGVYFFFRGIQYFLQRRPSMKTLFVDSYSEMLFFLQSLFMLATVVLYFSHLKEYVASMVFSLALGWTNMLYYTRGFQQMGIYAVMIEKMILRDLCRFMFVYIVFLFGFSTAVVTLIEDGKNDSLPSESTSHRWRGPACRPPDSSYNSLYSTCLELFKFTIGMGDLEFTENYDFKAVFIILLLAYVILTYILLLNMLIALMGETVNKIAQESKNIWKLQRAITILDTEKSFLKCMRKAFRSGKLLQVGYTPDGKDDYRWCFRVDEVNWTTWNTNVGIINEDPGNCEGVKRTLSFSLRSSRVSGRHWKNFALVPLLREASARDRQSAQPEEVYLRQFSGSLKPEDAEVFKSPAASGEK

As for `Oc1cc2c(cc1O)CN(C(=S)NCCc1ccc(Cl)cc1)CCC2` [capsazepine], the “rate of skin barrier recovery” value is recorded as “restores the rate of skin barrier recovery to normal level”.
